# Source: patent US10597388B2, “Pyridazinone herbicides” (FMC CORPORATION, priority 2014, dated 2020)
# Experiments:
# Format in all cases: in vivo
# [1] = test system: blackgrass (Alopecurus myosuroides); assay: Test C greenhouse herbicide test, pre- and postemergence
# How it was run: (§1)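 Each species was treated both before emergence, in a loam–sand soil mix, and after emergence, as 1- to 4-leaf seedlings in peat-based potting medium. Plants stayed in the greenhouse 13 to 15 d, then were scored from 0 (no effect) to 100 (complete control) relative to controls.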
# corn (Zea mays) = assay: as above
# How it was run: as §1
# [2] = test system: crabgrass, large (large crabgrass, Digitaria sanguinalis); assay: as above
# How it was run: as §1
# [3] = test system: foxtail, giant (giant foxtail, Setaria faberii); assay: as above
# How it was run: as §1
# [4] = test system: johnsongrass (Sorghum halepense); assay: as above
# How it was run: as §1
# [5] = test system: lambsquarters (Chenopodium album); assay: as above
# How it was run: as §1
# [6] = test system: morningglory (Ipomoea coccinea); assay: as above
# How it was run: as §1
# [7] = test system: nutsedge, yellow (yellow nutsedge, Cyperus esculentus); assay: as above
# How it was run: as §1
# [8] = test system: oilseed rape (Brassica napus); assay: as above
# How it was run: as §1
# [9] = test system: pigweed (Amaranthus retroflexus); assay: as above
# How it was run: as §1
# [10] = test system: ragweed (common ragweed, Ambrosia elatior); assay: as above
# How it was run: as §1
# [11] = test system: ryegrass, Italian (Italian ryegrass, Lolium multiflorum); assay: as above
# How it was run: as §1
# soybean (Glycine max) = assay: as above
# How it was run: as §1
# [12] = test system: waterhemp (common waterhemp, Amaranthus rudis); assay: as above
# How it was run: as §1
# [13] = test system: wheat (winter wheat, Triticum aestivum); assay: as above
# How it was run: as §1
# kochia (Kochia scoparia) = assay: Test C greenhouse herbicide test, postemergence
# How it was run: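 Steps: pot plants in peat-based medium; spray postemergence at 1- to 4-leaf stage; hold in greenhouse 13 to 15 d; score visually against controls from 0 (no effect) to 100 (complete control).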
# [14] = Postemergence, 31 g ai/ha, scale 0 to 100 (0 no effect, 100 complete control)
# [15] = Postemergence, 62 g ai/ha, 0 to 100 scale (0 no effect, 100 complete control)
# [16] = Postemergence, 250 g ai/ha, scale 0 to 100, 0 no effect, 100 complete control, 13 to 15 d
# [17] = Preemergence, 31 g ai/ha, scale 0 to 100, 0 is no effect, 100 is complete control
# [18] = Preemergence, 62 g ai/ha, scale 0 to 100, 0 is no effect, 100 is complete control
# [19] = Preemergence, 125 g ai/ha, scale 0 to 100, 0 is no effect, 100 is complete control
# [20] = Preemergence, 250 g ai/ha, scale 0 to 100 (0 no effect, 100 complete control)
# [21] = postemergence, 125 g ai/ha, scale 0 to 100, 0 no effect, 100 complete control
smiles,measurement,setting,value
CC(=O)Oc1c(C)nn(C)c(=O)c1-c1c(C)cc(C)c2ccccc12 [Compound 153],"Plant response rating, Blackgrass",[1]; [14],80
same,Blackgrass plant response rating,[1]; [15],85
same,"Plant response rating, Blackgrass",[1]; [16],90
same,"Plant response rating, Blackgrass",[1]; [17],90
same,"Plant response rating, Blackgrass",[1]; [18],90
same,"Plant response rating, Blackgrass",[1]; [19],95
same,Blackgrass plant response rating,[1]; [20],95
same,Blackgrass plant response rating,[1]; [21],90
same,"Plant response rating, Corn",corn (Zea mays); [14],20
same,Corn plant response rating,corn (Zea mays); [15],35
same,"Plant response rating, Corn",corn (Zea mays); [16],10
same,"Plant response rating, Corn",corn (Zea mays); [17],0
same,"Plant response rating, Corn",corn (Zea mays); [18],0
same,"Plant response rating, Corn",corn (Zea mays); [19],40
same,Corn plant response rating,corn (Zea mays); [20],65
same,Corn plant response rating,corn (Zea mays); [21],25
same,"Plant response rating, Crabgrass, Large",[2]; [14],55
same,"Crabgrass, Large plant response rating",[2]; [15],50
same,"Plant response rating, Crabgrass, Large",[2]; [16],75
same,"Plant response rating, Crabgrass, Large",[2]; [17],80
same,"Plant response rating, Crabgrass, Large",[2]; [18],100
same,"Plant response rating, Crabgrass, Large",[2]; [19],98
same,"Crabgrass, Large plant response rating",[2]; [20],100
same,"Crabgrass, Large plant response rating",[2]; [21],50
same,"Plant response rating, Foxtail, Giant",[3]; [14],80
same,"Foxtail, Giant plant response rating",[3]; [15],85
same,"Plant response rating, Foxtail, Giant",[3]; [16],95
same,"Plant response rating, Foxtail, Giant",[3]; [17],98
same,"Plant response rating, Foxtail, Giant",[3]; [18],100
same,"Plant response rating, Foxtail, Giant",[3]; [19],100
same,"Foxtail, Giant plant response rating",[3]; [20],100
same,"Foxtail, Giant plant response rating",[3]; [21],90
same,"Plant response rating, Johnsongrass",[4]; [14],10
same,Johnsongrass plant response rating,[4]; [15],5
same,"Plant response rating, Johnsongrass",[4]; [16],15
same,"Plant response rating, Johnsongrass",[4]; [17],25
same,"Plant response rating, Johnsongrass",[4]; [18],50
same,"Plant response rating, Johnsongrass",[4]; [19],65
same,Johnsongrass plant response rating,[4]; [20],70
same,Johnsongrass plant response rating,[4]; [21],10
same,"Plant response rating, Lambsquarters",[5]; [14],85
same,Lambsquarters plant response rating,[5]; [15],90
same,"Plant response rating, Lambsquarters",[5]; [16],95
same,"Plant response rating, Lambsquarters",[5]; [17],95
same,"Plant response rating, Lambsquarters",[5]; [18],100
same,"Plant response rating, Lambsquarters",[5]; [19],100
same,Lambsquarters plant response rating,[5]; [20],98
same,Lambsquarters plant response rating,[5]; [21],95
same,"Plant response rating, Morningglory",[6]; [14],98
same,Morningglory plant response rating,[6]; [15],100
same,"Plant response rating, Morningglory",[6]; [16],100
same,"Plant response rating, Morningglory",[6]; [17],95
same,"Plant response rating, Morningglory",[6]; [18],90
same,"Plant response rating, Morningglory",[6]; [19],98
same,Morningglory plant response rating,[6]; [20],98
same,Morningglory plant response rating,[6]; [21],98
same,"Plant response rating, Nutsedge, Yellow",[7]; [14],85
same,"Nutsedge, Yellow plant response rating",[7]; [15],90
same,"Plant response rating, Nutsedge, Yellow",[7]; [16],90
same,"Plant response rating, Nutsedge, Yellow",[7]; [17],80
same,"Plant response rating, Nutsedge, Yellow",[7]; [18],85
same,"Plant response rating, Nutsedge, Yellow",[7]; [19],80
same,"Nutsedge, Yellow plant response rating",[7]; [20],95
same,"Nutsedge, Yellow plant response rating",[7]; [21],95
same,"Plant response rating, Oilseed Rape",[8]; [14],90
same,Oilseed Rape plant response rating,[8]; [15],90
same,"Plant response rating, Oilseed Rape",[8]; [16],90
same,"Plant response rating, Oilseed Rape",[8]; [17],95
same,"Plant response rating, Oilseed Rape",[8]; [18],100
same,"Plant response rating, Oilseed Rape",[8]; [19],98
same,Oilseed Rape plant response rating,[8]; [20],100
same,Oilseed Rape plant response rating,[8]; [21],90
same,"Plant response rating, Pigweed",[9]; [14],85
same,Pigweed plant response rating,[9]; [15],75
same,"Plant response rating, Pigweed",[9]; [16],85
same,"Plant response rating, Pigweed",[9]; [17],100
same,"Plant response rating, Pigweed",[9]; [18],100
same,"Plant response rating, Pigweed",[9]; [19],100
same,Pigweed plant response rating,[9]; [20],100
same,Pigweed plant response rating,[9]; [21],85
same,"Plant response rating, Ragweed",[10]; [14],70
same,Ragweed plant response rating,[10]; [15],90
same,"Plant response rating, Ragweed",[10]; [16],90
same,"Plant response rating, Ragweed",[10]; [17],95
same,"Plant response rating, Ragweed",[10]; [18],95
same,"Plant response rating, Ragweed",[10]; [19],98
same,Ragweed plant response rating,[10]; [20],100
same,Ragweed plant response rating,[10]; [21],95
same,"Plant response rating, Ryegrass, Italian",[11]; [14],90
same,"Ryegrass, Italian plant response rating",[11]; [15],95
same,"Plant response rating, Ryegrass, Italian",[11]; [16],95
same,"Plant response rating, Ryegrass, Italian",[11]; [17],90
same,"Plant response rating, Ryegrass, Italian",[11]; [18],95
same,"Plant response rating, Ryegrass, Italian",[11]; [19],90
same,"Ryegrass, Italian plant response rating",[11]; [20],95
same,"Ryegrass, Italian plant response rating",[11]; [21],95
same,"Plant response rating, Soybean",soybean (Glycine max); [14],5
same,Soybean plant response rating,soybean (Glycine max); [15],10
same,"Plant response rating, Soybean",soybean (Glycine max); [16],5
same,"Plant response rating, Soybean",soybean (Glycine max); [17],20
same,"Plant response rating, Soybean",soybean (Glycine max); [18],10
same,"Plant response rating, Soybean",soybean (Glycine max); [19],20
same,Soybean plant response rating,soybean (Glycine max); [20],45
same,Soybean plant response rating,soybean (Glycine max); [21],10
same,"Plant response rating, Waterhemp",[12]; [14],70
same,Waterhemp plant response rating,[12]; [15],65
same,"Plant response rating, Waterhemp",[12]; [16],90
same,"Plant response rating, Waterhemp",[12]; [17],80
same,"Plant response rating, Waterhemp",[12]; [18],95
same,"Plant response rating, Waterhemp",[12]; [19],95
same,Waterhemp plant response rating,[12]; [20],100
same,Waterhemp plant response rating,[12]; [21],90
same,"Plant response rating, Wheat",[13]; [14],15
same,Wheat plant response rating,[13]; [15],20
same,"Plant response rating, Wheat",[13]; [16],10
same,"Plant response rating, Wheat",[13]; [17],0
same,"Plant response rating, Wheat",[13]; [18],10
same,"Plant response rating, Wheat",[13]; [19],30
same,Wheat plant response rating,[13]; [20],50
same,Wheat plant response rating,[13]; [21],10
same,"Plant response rating, Kochia",kochia (Kochia scoparia); [14],40
same,Kochia plant response rating,kochia (Kochia scoparia); [15],70
same,"Plant response rating, Kochia",kochia (Kochia scoparia); [16],85
same,Kochia plant response rating,kochia (Kochia scoparia); [21],80
